Assay results published in patent publication US20120010164A1, “ANTIVIRAL AGENTS” (priority 2009, published 2012).

Columns and labels:
[1] = system: subgenomic HCV Replicon in hepatoma (HuH-7) cells; test: Assay for inhibition of HCV RNA replication (replicon, in situ ribonuclease protection SPA); format: cell-based; details: Hepatitis C virus, HuH-7 replicon cells, activity ranges
Procedure: The compounds of the present invention were also evaluated for their ability to affect the replication of Hepatitis C Virus RNA in cultured hepatoma (HuH-7) cells containing a subgenomic HCV Replicon. The details of the assay are described below. This Replicon assay is a modification of that described in V. Lohmann, F. Korner, J-O. Koch, U. Herian, L. Theilmann, and R. Bartenschlager, “Replication of a Sub-genomic Hepatitis C Virus RNAs in a Hepatoma Cell Line,” Science 285:110 (1999).
The assay was an in situ Ribonuclease protection, Scintillation Proximity based-plate assay (SPA). 10,000-40,000 cells were plated in 100-200 μL of media containing 0.8 mg/mL G418 in 96-well cytostar plates (Amersham). Compounds were added to cells at various concentrations up to 100 μM in 1% DMSO at time 0 to 18 h and then cultured for 24-96 h. Cells were fixed (20 min, 10% formalin), permeabilized (20 min, 0.25% Triton X-100/PBS) and hybridized (overnight, 50° C.) with a single-stranded ^33P RNA probe complementary to the (+) strand NS5B (or other genes) contained in the RNA viral genome. Cells were washed, treated with RNAse, washed, heated to 65° C. and counted in a Top-Count Inhibition of replication was read as a decrease in counts per minute (cpm).
Human HuH-7 hepatoma cells, which were selected to contain a subgenomic replicon, carry a cytoplasmic RNA consisting of an HCV 5′ non-translated region (NTR), a neomycin selectable marker, an EMCV IRES (internal ribosome entry site), and HCV non-structural proteins NS3 through NS5B, followed by the 3′ NTR.

[2] = Cellular toxicity counterscreen (CC50); format: cell-based; details: human, HuH-7 hepatoma cells
Procedure: The compounds of the present invention were also evaluated for cellular toxicity and anti-viral specificity in the counterscreens described below.

| SMILES | EC50 [1] [µM] | CC50 [2] [µM] |
| --- | --- | --- |
| [N-]=[N+]=N[C@]1(CO)O[C@@H](n2ccc3c(N)ncnc32)[C@@H](F)[C@@H]1O [Example 1, 7-(4-azido-2-deoxy-2-fluoro-β-D-arabinofuranosyl)-7H-pyrrolo[2,3-d]pyrimidin-4-amine] | < 20 | > 100 |
| [N-]=[N+]=N[C@]1(CO)O[C@@H](n2cc(F)c3c(N)ncnc32)[C@@H](F)[C@@H]1O [Example 2, 7-(4-azido-2-deoxy-2-fluoro-β-D-arabinofuranosyl)-5-fluoro-7H-pyrrolo[2,3-d]pyrimidin-4-amine] | 20 to 100 | > 100 |
| [N-]=[N+]=N[C@]1(CO)OC(n2cnc3c(N)ncnc32)[C@@H](F)[C@@H]1O (stereo partly drawn) [Example 3, 9-(4-azido-2-deoxy-2-fluoro-b-D-arabinofuranosyl)-9H-purin-6-amine] | > 100 | > 100 |
